Where two headings read alike, the source gives them in different places.
What was measured:
[1] = test system: Candida albicans RCPF Y-401/NCTC-885-653; assay: Antifungal activity, 2-fold serial dilutions in Saburo glucose broth; type: cell-based, C. albicans; settings: for MIC: Candida albicans
Method: The study of the antifungal activity of compound I in vitro was carried out in accordance with [Metodicheskiye rekomendatsii No 2. Mikologicheskoye issledovaniye ob″yektov okruzhayushchey sredy i opredeleniye protivogribkovoy aktivnosti razlichnykh veshchestv.—GOU DPO SPbMAPO NII meditsinskoy mikologii im. P. N. Kashkina, GBOU VPO SZGMU im. I. I. Mechnikova Minzdrava. SPb.: Izd. Dom SPbMAPO.—2008.—S. 16. Methodological recommendations No 2. Mycological examination of environmental objects and determination of antifungal activity of various substances.—State Educational Institution of St. Petersburg Medical Academy of Postgraduate Education with Scientific Research Institute of Medical Mycology named after P. N. Kashkin, State Educational Institution of Higher Professional Education North-West State Medical University named after I. I. Mechnikov, Ministry of Health. St. Petersburg.:: Publishing House SPbMAPO.—2008.—P. 16].
The study of the antifungal activity of substances in vitro was carried out in a liquid nutrient medium (Saburo glucose broth) in biological tubes by the method of 2-fold serial dilutions. In test tubes, three parallel series of dilutions of the test substance were prepared in the following way.
Saburo's liquid broth was sterilely poured in 3 ml into each tube; 4.5 ml was poured into the first tube of the row. A total of 14 tubes were used in a row; of which the last was a control one. 400 mg of the test substance was taken as a standard sample and dissolved in 10 ml of distilled water. Thus, the initial dilution contained the test substance at a concentration of 40000 ug/ml. Then 0.5 ml of this dilution was introduced into the first test tube of the series (with 4.5 ml of medium), thereby diluting the concentration of the substance by another 10 times. Therefore, the first tube of the series contained 4000 μg/ml of the test substance. Then, 3 ml of the solution was taken from the first tube and transferred to the second tube, thoroughly purged, then 3 ml of the solution were taken again from the second tube and transferred to the third tube, etc.; from the penultimate tube, 3 ml was poured. […] The growth of cultures was initially assessed visually, comparing the growth of microorganisms in the presence of test compounds with the growth of culture without them. […] The first lowest concentration of the substance (from a series of consecutive dilutions), where the growth of fungi was suppressed or not visually determined, was considered the minimum inhibitory concentration (MIC).
For the preparation of inoculum, were respectively used pure (2-5) days cultures of yeast and mycelial fungi, grown on Saburo's dense nutrient broth. […] The inoculum was used within 15 minutes after preparation; the purity of the fungal strains was monitored before each experiment. […]

[2] = test system: E. coli CDC F-50; assay: Antiseptic activity on rat skin; type: in vivo; settings: E. coli CDC F-50 on rat skin; antiseptic concentration 0.2%; exposure time 5 min; n = 6
Method: The study of the antiseptic activity of compound I in rats […] was carried out in accordance with [R 4.2.2643-10 Metody laboratornykh issledovaniy i ispytaniy mediko-profilakticheskikh dezinfektsionnykh sredstv dlya otsenki ikh effektivnosti i bezopasnosti: Rukovodstvo.—M: Federal'nyy tsentr gigiyeny i epidemiologii Rospotrebnadzora, 2010.—S. 615. R 4.2.2643-10 Laboratory methods for the study and testing of medical prophylactic disinfectants to assess their effectiveness and safety: Guide.—M.:: Federal Center for Hygiene and Epidemiology of Rospotrebnadzor, 2010.—P. 615]. Experiments were carried out on male Wistar rats with a body weight of 180-250 g.
A culture of E. coli CDC F-50, grown on dense nutrient medium for (18-20) hours, was washed with sterile isotonic chloride solution, centrifuged at 5000 rpm for 5 minutes, the supernatant was drained and cells were resuspended with sterile isotonic sodium chloride solution.
The bacterial suspension of microorganisms was brought to a turbidity of […] according to McFarland, which corresponds to a concentration of 1.5×10^7 cells/ml.
Animals were formed in 5 groups of 6 animals each. All manipulations with animals were performed under isoflurane anesthesia (4%—induction of anesthesia (2 min, 1 l/min), 2%—basis narcosis). A portion of 5×5 cm was shaved with a hair clipper on the dorsal part of the body of the animal.
A 0.25 ml microbial suspension containing 1×10^7 CFU of E. coli CDC F-50 was applied to the shaved portion of the rat back with a dispenser and distributed with a sterile disposable spatula over the entire square area. It was left for 2-3 minutes until dry.
Then, a gauze cloth (5×5 cm) was applied to the skin of rats for 5 minutes. In the experimental group, the tissue was pre-wetted with 1 ml of 0.2% solution of compound I, and in the positive control groups, the tissue was dipped in 1 ml of 0.2% miramistin, benzalkonium chloride and chlorhexidine. In the negative control group, the cloth was immersed in 1 ml of sterile saline. […]
After the time required for the cultivation of microorganisms of this species, the results were counted according to the number of colonies grown on the Petri dish. […] After counting the number of colonies grown on Petri dishes, the density of contamination per 1 cm^2 of the surface and the percentage of disinfection were calculated, taking the number of colonies removed from control surfaces and not exposed to antiseptics action as 100%. The percentage of growth inhibition of E. coli CDC F-50 was calculated by the formula: […]

[3] = C. albicans RCPF Y-401/NCTC-885-653

Compound | The value of the MIC [1, 3] | Growth inhibition rate (M ± SD) [2] [%] | MIC ([1]; NCTC885, C. albicans RCPF Y-401/NCTC-885-653, read-out: The value of the MIC) [µg/mL] | MIC ([1]; NCTC885, read-out: The value of the MIC) [µg/mL]
alkyldimethyl(phenylmethyl) ammonium chloride [Benzalconium chloride] | 7.8 µg/mL | 96.8 ± 2.0 |  | 
CCCCCCCCCCCC[N+](C)(C)Cc1cnc(C[N+](C)(C)CCCCCCCCCCCC)c2c1COC(CC)O2 (stereo not shown) [Compound I, 5,8-(Bis(methylene (N, N-dimethyl-N-dodecylammonium))-2-ethyl-4H-[1,3]dioxino [4,5-c]pyridiniumdichloride] |  | 97.5 ± 1.7 | 62.5 | 
CCCCCCCCCCCCCC(=O)NCCC[N+](C)(C)Cc1ccccc1.O.[Cl-] [Miramistin, benzyldimethyl [3-(myristoylamino)propyl]-ammonium chloride monohydrate] | inactive | 97.2 ± 1.8 |  | > 500

From patent US11014934B2, “Antiseptic drug” (AO “TATKHIMFARMPREPARATY”, priority 2017, dated 2021)
